Measured values: patent US20170296550A1, “ARYL SULTAM DERIVATIVES AS RORc MODULATORS” (Genentech, Inc., priority 2013, published 2017)

Molecular target: T1, RORc (Homo sapiens, UniProt P51449)
T1 construct: host or cells: E. coli
T1 sequence (P51449 269-508 limits assumed): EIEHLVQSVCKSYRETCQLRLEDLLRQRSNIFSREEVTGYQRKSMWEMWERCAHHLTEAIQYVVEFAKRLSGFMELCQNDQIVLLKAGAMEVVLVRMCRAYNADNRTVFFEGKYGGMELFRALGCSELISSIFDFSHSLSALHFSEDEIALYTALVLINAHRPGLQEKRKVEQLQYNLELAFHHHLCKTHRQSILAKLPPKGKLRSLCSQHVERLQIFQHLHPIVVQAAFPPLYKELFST
Assay: In Vitro RORc Ligand Binding Assay (25-[3H]hydroxycholesterol radioligand, filter plate)
Settings: RORc ligand binding domain 0.6 ug/mL; 6 nM 25-[3H]hydroxycholesterol; 3 h at 25° C.
Method: Example 68 In Vitro RORc Ligand Binding Assay
This assay was used to determine a compound's potency in inhibiting activity of RORc by determining, Kiapp, IC50, or percent inhibition values.
On day of the assay, 100 uL of 0.05% CHAPS (in deionized H2O) was added to all wells of the GFB Unifilter plate and allowed soak for 1 h. A wash buffer of 50 mM HEPES (pH 7.4), 150 mM NaCl, and 5 mM MgCl2 was prepared to wash the filter plate. To prepare an assay buffer, BSA was added to the wash buffer to reach 0.01% and DTT was added to reach 1 mM.
For IC50 mode, 10 mM compound stocks were serially diluted in DMSO with DMSO to give 20× required final concentration in DMSO (15 uL compound+30 uL DMSO). The 20× compound stocks were diluted in DMSO with Assay Buffer 4-fold to reach 5× the final test concentration in 25% DMSO (10 uL compound+30 uL Assay Buffer). Solutions were mixed by aspiration several times with a pipette set on 50 uL volume. For the assay, 10 uL of 5× compound stock solutions in 25% DMSO were added to the assay plate in duplicate.
For two point screening, 10 mM stock compound solutions were diluted in DMSO to obtain 200 uM (20× the high test concentration) and then diluted 10-fold further to reach 20 uM (20× the low test concentration). The 20× stocks were diluted 4-fold with Assay Buffer (10 uL compound+30 uL Assay Buffer) to reach 5× the test concentrations (50 uM and 5 uM) and 10 uL were added to two assay plates for the duplicate wells. With each concentration tested on 2 plates, each set of 80 compounds used 4 assay plates (1 uM and 10 uM, with n=2).
25-hydroxycholesterol (1 uM) was used to determine the level of NSB signal is prepared in DMSO as for compounds above, then diluted in Assay Buffer to give a final concentration of 5 uM. For 25-hydroxycholesterol in 25% DMSO/75% Assay Buffer; 10 uL per well was used for NSB samples. Wells for Total Binding and No Receptor sample determination contained 10 uL of 25% DMSO/75% Assay Buffer per well.
Radioligand (25-[^3H]hydroxycholesterol) Preparation
25-[^3H]hydroxycholesterol was dilute in Assay Buffer to obtain 15 nM and vortex to mix. Add 20 uL to all wells to reach 6 nM final in the assay.
Stock receptor solution was diluted in assay buffer to obtain 1.5 ug/mL in Assay Buffer. 20 uL was added to all wells. For No R samples, 20 uL Assay Buffer was substituted for receptor solution.
Assay plates were 96-well polypropylene V-bottom plates. 10 uL of 5× compound in 25% DMSO/75% Assay Buffer was added to Test wells. 10 uL of 25% DMSO/75% Assay Buffer was added to Total Binding or No Receptor wells. 10 uL of 5 uM 25-hydroxycholesterol in 25% DMSO/75% Assay Buffer was added to NSB wells. 20 uL of 15 nM 25-[^3H]hydroxycholesterol prepared in Assay Buffer was added to all wells. 20 uL of 1.5 ug/mL RORc receptor was added to wells (or […] Assay Buffer to No R wells). Following addition to the wells, the plates were incubated 3 h at 25° C.
Using a Packard Filtermate Harvester, the filter plate were washed 4 times following transfer of the incubated samples. Plates were dry-filtered completely (2 h at 50° C. or overnight at room temperature). 50 uL Microscint 0 was added to all wells and read on Topcount protocol Inverted.
Final concentrations were as follows: 50 mM HEPES buffer (pH 7.4); 150 mM NaCl; 1 mM DTT; 5 mM MgCl2; 0.01% BSA; 5% DMSO; 0.6 ug/mL RORc receptor; 6 nM 25-[^3H]hydroxycholesterol. For NSB wells, 1 uM 25-hydroxycholesterol was also present.

Row | IC50 | Structure (SMILES)
1 | 69 nM | CCS(=O)(=O)c1ccc(-c2ccc(CN3[C@@H](C)CCC(c4ccccc4)S3(=O)=O)c(F)c2)cc1 (stereo partly drawn) [Example 59, (3S)-2-(4′-Ethanesulfonyl-3-fluoro-biphenyl-4-ylmethyl)-3-methyl-6-phenyl-[1,2]thiazinane 1,1-dioxide]
2 | 151 nM | Cc1noc(C)c1COc1ccc(CN2[C@@H](C)CCC(c3ccccc3)S2(=O)=O)cc1 (stereo partly drawn) [Example 60, (3S)-2-[4-(3,5-Dimethyl-isoxazol-4-ylmethoxy)-benzyl]-3-methyl-6-phenyl-[1,2]thiazinane 1,1-dioxide]
